# Like-named read-outs stand apart in the source and are kept apart here.
# How the values were obtained:
# [1] = system: MDA-MB-436 breast cancer cells; assay: MTT proliferation inhibition, MDA-MB-436; type: cell-based; conditions: Homo sapiens, MDA-MB-436, read-out: Proliferation inhibition rate, MDA-MB-436 Breast cancer
# Excerpt: (§1) 1. Cytotoxicity Assay Using Human Tumor Cell Lines
# (§2) Paclitaxel was used as the positive drug.
# K562 leukemia = assay: MTT proliferation inhibition, K562; type: cell-based; conditions: Homo sapiens, K562, read-out: Proliferation inhibition rate, K562 Leukemia
# Excerpt: as §1, §2
# A2780 ovarian cancer = assay: MTT proliferation inhibition, A2780; type: cell-based; conditions: Homo sapiens, A2780, read-out: Proliferation inhibition rate, A2780 Ovarian cancer
# Excerpt: as §1, §2
# Hela cervical cancer = assay: MTT proliferation inhibition, HeLa; type: cell-based; conditions: Homo sapiens, read-out: Proliferation inhibition rate, HeLa Uterin cancer
# Excerpt: as §1, §2
# HL-60 leukemia = assay: MTT proliferation inhibition, HL-60; type: cell-based; conditions: Homo sapiens, HL-60, read-out: Proliferation inhibition rate, HL60 Leukemia
# Excerpt: as §1, §2
# LNCaP prostate cancer = assay: MTT proliferation inhibition, LNCaP; type: cell-based; conditions: Homo sapiens, read-out: Proliferation inhibition rate, LNCaP Prostate cancer
# Excerpt: as §1, §2
# B16 melanoma = assay: MTT proliferation inhibition, B16; type: cell-based; conditions: B16, read-out: Proliferation inhibition rate, B16 Melanoma
# Excerpt: as §1, §2
# A375 melanoma = assay: MTT proliferation inhibition, A375; type: cell-based; conditions: Homo sapiens, A-375, read-out: Proliferation inhibition rate, A375 Melanoma
# Excerpt: as §1, §2
# Du145 prostate cancer = assay: MTT proliferation inhibition, Du145; type: cell-based; conditions: Homo sapiens, DU-145, read-out: Proliferation inhibition rate, DU145 Prostate cancer
# Excerpt: as §1, §2
# [2] = In vivo oral bioavailability assay in rats; conditions: rat; for AUC(0-t): 0-24 hours; for MRT inf: read-out: MRT0-∞
# Excerpt: The compound PCMI-08 was synthesized and detected according to the methods provided in the present invention. The internal standard, paclitaxel, was purchased from China's National Institute for the Control of Pharmaceutical and Biological Products (NICPBP). Chromatography-grade acetonitrile was purchased from Sigma-Aldrich Inc. Tween 80 and ethyl acetate were purchased from Aladdin reagent Inc. Male S.D. rats were purchased from Beijing Weitonglihua Inc. and raised in animal house for two weeks.
# 200 mg of PCMI-08 was dissolved in 4 ml of a mixed solution of Tween 80 and anhydrous ethanol (1:1) to prepare a stock solution at 50 mg/ml and normal saline was added to adjust to a suitable concentration. 12 male S.D. rats (300 g of body weight) were taken and divided into two groups after overnight fasting. One group was treated with intravenous injection (5 mg/kg) and the other group was treated orally (60 mg/kg). Blood was sampled in the intravenous group at 0th min, 5th min, 10th min, 20th min, 40th min, 1st h, 2nd h, 4th h, 6th h, 8th h, 12th h, 24th h, while the oral group at 5th min, 15th min, 30th min, 45th min, 1st h, 2nd h, 4th h, 6th h, 8th h, 12th h, 24th h. After 10 min centrifugation of plasma at 4500 rpm, the upper serum was taken and transferred to the corresponding EP tube, placed in a −40° C. freezer for assay.
# Agilent 1100 series configuration: Agilent G1313A HPLC autosampler device, 150 mm×2.1 mm C18 Thermo column (particle size 3 μm) reversed-phase column, detection wavelength at 230 nm, column temperature at 30° C., mobile phase of acetonitrile/water (7:3), a flow rate at 0.2 ml/min, injection volume of 20 μl. The mass spectrometry (MS) combined was Thermo Finnigan TSQ Quantum triple quadrupole configurated with electrospray ionization (ESI) in the positive ion mode. The parameters of MS analysis were as follows: spray chamber voltage, 4.0 kv; heated capillary temperature, 350° C.; protective gas (nitrogen); 20 psi; auxiliary gas (nitrogen): 5 psi; collision gas (argon); pressure: 1.5 mmTorr.; Collision energy: CA 17 eV; FA and IFA were 19 eV; IS was 15 eV.
# Paclitaxel was selected as an internal standard with a retention time of 3.07 min. Retention time of PCMI-08 was 5.13 min. MS detection condition to PCMI-08 was set as follows: 957→901 m/z; paclitaxel as an internal standard. Detection conditions: 876→308 m/z. The concentration range of the standard curve of PCMI-08 was 5-10,000 ng/ml (γ^2>0.99) and the minimum detection limit was 5 ng/ml.
# 100 μL of plasma samples were taken, into which 100 μL of the internal standard (paclitaxel, 500 ng/ml acetonitrile solution) was added, followed by addition of 3 ml of ethyl acetate after well homogenized via vortex, after 5 min shaking, centrifuging for 8 min at a rotating speed of 4500 rpm. The supernatant was transferred to a clean EP tube with nitrogen to blow to dry under heating condition. After reconstitution with 120 μL mobile phase (CH3CN/H2O=7:3), the solution was centrifuged at 12,000 rpm for 3 min, 100 μl of supernatant was taken and transferred to an autosampler vial. After LC-MS/MS detection, statistical data and pharmacokinetic parameters were processed by Xcalibur® (version 1.3) software (Thermo Finnigan).
# [3] = Caco-2 cell monolayer membrane transport assay (Papp and recovery); type: in vitro ADME; conditions: human, Caco-2, Caco-2, A-B
# Excerpt: Caco-2 Cell Monolayer Membrane Transport Assay
# (§3) Human-derived colorectal adenocarcinoma cell line Caco-2 cell monolayer model was used to study the bidirectional transport of the target compounds from the apical (AP) side to the basolateral (BL) side and from BL side to AP side. HPLC was used for quantitative analysis to calculate transport parameters, apparent permeability coefficient (Papp) and the efflux ratio.
# Caco-2 cell monolayer = assay: Caco-2 bidirectional transport, efflux ratio; conditions: Caco-2 cell line (21 days)
# Excerpt: as §3
# LN-18 = assay: MTT proliferation inhibition, LN-18; type: cell-based; conditions: Homo sapiens, LN-18, read-out: Proliferation inhibition rate, LN-18 Gastric canser
# Excerpt: as §1, §2
# [4] = system: A549 non-small cell lung cancer; assay: MTT proliferation inhibition, A549; type: cell-based; conditions: Homo sapiens, A549, read-out: Proliferation inhibition rate, A549 Non-small cell lung cancer
# Excerpt: as §1, §2
# HCT 116 colon cancer = assay: MTT proliferation inhibition, HCT 116; type: cell-based; conditions: Homo sapiens, HCT-116, read-out: Proliferation inhibition rate, HCT 116 Colon cancer
# Excerpt: as §1, §2
# [5] = male, Sprague-Dawley, plasma, intravenous administration 5 mg/kg
# [6] = male, Sprague-Dawley, plasma, oral administration 60 mg/kg
smiles,measurement,setting,value
CO[C@H]1C[C@H]2OC[C@@]2(OC(C)=O)[C@H]2[C@H](OC(=O)c3ccccc3)[C@]34OC(=O)O[C@H]3[C@H](OC(=O)[C@H](O)[C@@H](NC(=O)OC(C)(C)C)c3ccccc3)C(C)=C([C@@H](OC(=O)N(C)C)C(=O)[C@]12C)C4(C)C [PCMI-08],inhibition at 1 µM,[1],65.7%
same,inhibition at 1 µM,K562 leukemia,90.8%
same,inhibition at 1 µM,A2780 ovarian cancer,92.5%
same,inhibition at 1 µM,Hela cervical cancer,97.3%
same,inhibition at 1 µM,HL-60 leukemia,96.8%
same,inhibition at 1 µM,LNCaP prostate cancer,84.3%
same,inhibition at 1 µM,B16 melanoma,70.6%
same,inhibition at 1 µM,A375 melanoma,92.8%
same,inhibition at 1 µM,Du145 prostate cancer,86.7%
same,half-life,"[2]; male, Sprague-Dawley, plasma, other: intravenous and oral (summary over both arms), route not specified, read-out: half-life (converted)",~10 h
same,AUC(0-inf),[2]; [5],4.05 ± 1.86 µg·h/mL
same,Cmax,[2]; [5],11 ± 2.68 µg/mL
same,Tmax,[2]; [5],0 h
same,AUC(0-t),[2]; [5],3.44 ± 1.48 µg·h/mL
same,MRT inf,[2]; [5],10.1 ± 2.6 h
same,half-life,"[2]; male, Sprague-Dawley, plasma, intravenous administration 5 mg/kg, read-out: t1/2 (converted)",10.2 ± 1.72 h
same,AUC(0-inf),[2]; [6],32 ± 8.54 µg·h/mL
same,Cmax,[2]; [6],2.12 ± 0.454 µg/mL
same,Tmax,[2]; [6],3 ± 1.1 h
same,AUC(0-t),[2]; [6],25.3 ± 6.15 µg·h/mL
same,MRT inf,[2]; [6],15.2 ± 1.71 h
same,half-life,"[2]; male, Sprague-Dawley, plasma, oral administration 60 mg/kg, read-out: t1/2 (converted)",10.4 ± 1.14 h
same,bioavailability,"[2]; male, Sprague-Dawley, plasma, oral, 60 mg/kg, oral 60 mg/kg vs intravenous 5 mg/kg, read-out: F, absolute oral bioavailability",65.8%
same,"F, absolute oral bioavailability",[2]; oral 60 mg/kg vs intravenous 5 mg/kg,65.79%
same,mean retention time,[2]; route not specified,≥ 10 h
same,Papp A→B,"[3]; Mean, read-out: Papp A-B, Mean",> 100 nm/s
same,recovery,"[3]; Mean, read-out: Recovery rate in mass, Mean",99.4%
same,Papp A→B,"[3]; Sample-01, read-out: Papp A-B, Sample-01",195 nm/s
same,recovery,"[3]; Sample-01, read-out: Recovery rate in mass, Sample-01",102%
same,Papp A→B,"[3]; Sample-02, read-out: Papp A-B, Sample-02",173 nm/s
same,recovery,"[3]; Sample-02, read-out: Recovery rate in mass, Sample-02",97%
same,Papp A-B,Caco-2 cell monolayer; A-B,16.40 10^−6 cm/s
same,Papp B-A,Caco-2 cell monolayer; B-A,33.48 10^−6 cm/s
same,efflux ratio,Caco-2 cell monolayer; Papp B-A/Papp A-B,2.04
same,inhibition at 1 µM,LN-18,87.7%
same,inhibition at 1 µM,[4],68.1%
same,inhibition at 1 µM,HCT 116 colon cancer,58.7%

# Source: patent US9890175B2, “Taxane compound, and preparation method and use thereof” (JIANGSU TASLY DIYI PHARMACEUTICAL CO., LTD., priority 2013, dated 2018)
